What follows are molecules tested against Human Factor XIIa (Homo sapiens (Human), UniProt P00748) (assay: Determination of FXIIa inhibition (fluorogenic substrate H-DPro-Phe-Arg-AFC, IC50 assay)). Conditions: substrate H-DPro-Phe-Arg-AFC at Km, 25° C.; class scale A-G.
Assay type: biochemical
Method: Determination of FXIIa Inhibition
In vitro inhibition of Factor XIIa was determined using an IC50 assay based on standard literature methods (see e.g Baeriswyl et al., ACS Chem. Biol., 2015, 10 (8) 1861; Bouckaert et al., European Journal of Medicinal Chemistry 110 (2016) 181). Human Factor XIIa (Enzyme Research Laboratories) was incubated at 25° C. with the fluorogenic substrate H-DPro-Phe-Arg-AFC (Peptide Protein Science) and various concentrations of the test compound. Protease activity was measured by monitoring the accumulation of liberated fluorescence from the substrate over 5 min at 25° C. The linear rate of fluorescence increase per minute was expressed as percentage (%) activity. The Km for the cleavage of the substrate by FXIIa was determined by standard transformation of the Michaelis-Menten equation. The compound inhibitor assays were performed at substrate Km concentration. IC50 values were calculated as the concentration of inhibitor giving 50% inhibition (IC50) of the uninhibited enzyme activity (100%).

Human Factor XIIa, sequence (P00748 373-615): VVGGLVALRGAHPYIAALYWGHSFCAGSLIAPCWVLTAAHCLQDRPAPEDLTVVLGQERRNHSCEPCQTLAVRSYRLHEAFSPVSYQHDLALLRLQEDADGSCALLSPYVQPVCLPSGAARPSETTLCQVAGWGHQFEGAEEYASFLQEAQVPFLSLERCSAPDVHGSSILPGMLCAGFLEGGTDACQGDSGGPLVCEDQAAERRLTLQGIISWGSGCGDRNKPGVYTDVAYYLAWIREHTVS

Row | Structure (SMILES) | IC50
1 | CN1CCC(F)(COc2cc(CNc3ccc4c(N)nccc4c3)ccn2)CC1 [Example 4415, 6-N-({2-[(4-fluoro-1-methylpiperidin-4-yl)methoxy]pyridin-4-yl}methyl)isoquinoline-1,6-diamine] | 0.3 to 1 µM
2 | CN1CCC(COc2ccc(CNc3ccc4cncc(CO)c4c3)cn2)CC1 [Example 1026, (6-(((6-((1-Methylpiperidin-4-yl)methoxy)pyridin-3-yl)methyl)amino)isoquinolin-4-yl)methanol] | 10 to 40 µM
3 | Nc1nccc2cc(NCc3ccnc(N4CCn5c(nnc5C(F)(F)F)C4)c3)ccc12 [Example 4471, N6-((2-(3-(trifluoromethyl)-5,6-dihydro-[1,2,4]triazolo[4,3-a]pyrazin-7(8H)-yl)pyridin-4-yl)methyl)isoquinoline-1,6-diamine] | 10 to 40 µM
4 | CN1CCC(OCc2ccc(S(=O)(=O)Nc3ccc4c(N)nccc4c3)cc2)CC1 [Example 2210, N-(1-aminoisoquinolin-6-yl)-4-(((1-methylpiperidin-4-yl)oxy)methyl)benzenesulfonamide] | 0.3 to 1 µM
5 | Cn1ccnc1CCCOc1ccc(CNc2ccc3c(N)nccc3c2)cn1 [Example 1025, 6-N-({6-[3-(1-methylimidazol-2-yl)propoxy]pyridin-3-yl}methyl)isoquinoline-1,6-diamine] | 0.3 to 1 µM
6 | CN1CCC(CCn2cc(CNc3cccc4c(N)nccc34)cn2)CC1 [Example 3255, N5-((1-(2-(1-methylpiperidin-4-yl)ethyl)-1H-pyrazol-4-yl)methyl)isoquinoline-1,5-diamine] | 0.3 to 1 µM
7 | Cc1cc2c(NCc3cnc(N4CCn5c(nnc5C(F)(F)F)C4)cc3C)cncc2[nH]1 [Example 1341, 2-methyl-N-((4-methyl-6-(3-(trifluoromethyl)-5,6-dihydro-[1,2,4]triazolo[4,3-a]pyrazin-7(8H)-yl)pyridin-3-yl)methyl)-1H-pyrrolo[2,3-c]pyridin-4-amine] | 1 to 3 µM
8 | CN1CCC(COc2ccc(CNc3cnc4[nH]cc(Cl)c4c3)cn2)CC1 [Example 1020, 3-chloro-N-((6-((1-methylpiperidin-4-yl)methoxy)pyridin-3-yl)methyl)-1H-pyrrolo[2,3-b]pyridin-5-amine] | 1 to 3 µM
9 | CN1CCC(Cn2cc(CNc3ccc4c(N)nccc4c3)cn2)CC1 [Example 3253, N6-((1-((1-methylpiperidin-4-yl)methyl)-1H-pyrazol-4-yl)methyl)isoquinoline-1,6-diamine] | 1 to 3 µM
10 | CN1C[C@@H]2C(COc3cc(CNc4cccc5c(N)nccc45)ccn3)[C@@H]2C1 (stereo partly drawn) [Example 4418, 5-N-[(2-{[(1R,5S)-3-methyl-3-azabicyclo[3.1.0]hexan-6-yl]methoxy}pyridin-4-yl)methyl]isoquinoline-1,5-diamine] | 0.3 to 1 µM
11 | CN1CCC(COc2ccc(CNc3ccc4c(N)nccc4c3)cn2)CC1=O (centres unmarked) [Example 1015, 4-{[(5-{[(1-aminoisoquinolin-6-yl)amino]methyl}pyridin-2-yl)oxy]methyl}-1-methylpiperidin-2-one] | 0.3 to 1 µM
12 | Cn1ccnc1CCCOc1cc(CNc2cccc3c(N)nccc23)ccn1 [Example 4421, 5-N-({2-[3-(1-methylimidazol-2-yl)propoxy]pyridin-4-yl}methyl)isoquinoline-1,5-diamine] | 0.3 to 1 µM
13 | Nc1nccc2cc(NCc3ccc(OCC4CCNCC4)nc3)ccc12 [Example 1016, 6-N-{[6-(piperidin-4-ylmethoxy)pyridin-3-yl]methyl}isoquinoline-1,6-diamine] | 0.1 to 0.3 µM
14 | CC(C)(O)CN1CCC(COc2ccc(CNc3ccc4c(N)nccc4c3)cn2)CC1 [Example 1017, 1-(4-(((5-(((1-aminoisoquinolin-6-yl)amino)methyl)pyridin-2-yl)oxy)methyl)piperidin-1-yl)-2-methylpropan-2-ol] | 0.3 to 1 µM
15 | CN1CCC(COc2ccc(CNc3cccc4c(N)ncnc34)cn2)CC1 [Example 1022, N8-[[6-[(1-methyl-4-piperidyl)methoxy]-3-pyridyl]methyl]quinazoline-4,8-diamine] | 10 to 40 µM
16 | Nc1nccc2cc(NCc3ccnc(OCC4CCn5cnnc5C4)c3)ccc12 (centres unmarked) [Example 4411, 6-N-[(2-{5H,6H,7H,8H-[1,2,4]triazolo[4,3-a]pyridin-7-ylmethoxy}pyridin-4-yl)methyl]isoquinoline-1,6-diamine] | 0.3 to 1 µM

Row | Structure (SMILES) | IC50
17 | Nc1nccc2c(NCc3ccnc(N4CCn5c(nnc5C(F)(F)F)C4)c3)cccc12 [Example 4472, N5-((2-(3-(trifluoromethyl)-5,6-dihydro-[1,2,4]triazolo[4,3-a]pyrazin-7(8H)-yl)pyridin-4-yl)methyl)isoquinoline-1,5-diamine] | 1 to 3 µM
18 | Cc1cc(N2CCn3c(nnc3C(F)(F)F)C2)ncc1CNc1ccc2c(N)ncc(Cl)c2c1 [Example 1334, 4-chloro-N6-((4-methyl-6-(3-(trifluoromethyl)-5,6-dihydro-[1,2,4]triazolo[4,3-a]pyrazin-7(8H)-yl)pyridin-3-yl)methyl)isoquinoline-1,6-diamine] | 0.3 to 1 µM
19 | Cc1cc(N2CCn3c(nnc3C(F)(F)F)C2C)ncc1CNc1ccnc2[nH]c(Cl)cc12 (racemic) [Example 1314, 2-Chloro-N-((4-methyl-6-(8-methyl-3-(trifluoromethyl)-5,6-dihydro-[1,2,4]triazolo[4,3-a]pyrazin-7(8H)-yl)pyridin-3-yl)methyl)-1H-pyrrolo[2,3-b]pyridin-4-amine] | 0.01 to 0.1 µM
20 | CN1CCC(COc2ccc(CCc3ccc4c(N)nccc4c3)cn2)CC1 [Example 1018, 6-(2-(6-((1-methylpiperidin-4-yl)methoxy)pyridin-3-yl)ethyl)isoquinolin-1-amine] | 0.3 to 1 µM
21 | CN1CC2(CC(OCc3ccc(CNc4ccc5c(N)nccc5c4)c(F)c3)CS2)C1 (centres unmarked) [Example 2252, 6-N-({2-fluoro-4-[({2-methyl-5-thia-2-azaspiro[3.4]octan-7-yl}oxy)methyl]phenyl}methyl)isoquinoline-1,6-diamine] | 0.3 to 1 µM
22 | Cc1cc(N2CCn3c(nnc3C(F)(F)F)C2)ncc1CNc1ccc2c(N)nccc2c1 [Example 1333, N6-((4-methyl-6-(3-(trifluoromethyl)-5,6-dihydro-[1,2,4]triazolo[4,3-a]pyrazin-7(8H)-yl)pyridin-3-yl)methyl)isoquinoline-1,6-diamine] | 0.1 to 0.3 µM
23 | CN1CCC(OCc2ccc(CN(C)c3ccc4cnccc4c3)cc2)CC1 [Example 2204, N-methyl-N-[(4-{[(1-methylpiperidin-4-yl)oxy]methyl}phenyl)methyl]isoquinolin-6-amine] | 0.3 to 1 µM
24 | Cc1cc(N2CCn3c(nnc3C(F)(F)F)C2C)cnc1CNc1cccc2c(N)nccc12 (single isomer, unassigned) [Example 1345, (R*)-N5-((3-methyl-5-(8-methyl-3-(trifluoromethyl)-5,6-dihydro-[1,2,4]triazolo[4,3-a]pyrazin-7(8H)-yl)pyridin-2-yl)methyl)isoquinoline-1,5-diamine] | 0.01 to 0.1 µM
25 | Nc1nccc2cc(NCc3ccc(OC[C@H]4CCn5ccnc5C4)nc3)ccc12 (single isomer, unassigned) [Example 1024, 6-N-({6-[(7S*)-5H,6H,7H,8H-imidazo[1,2-a]pyridin-4-yl}-ylmethyl)isoquinoline-1,6-diamine] | 0.1 to 0.3 µM
26 | Cn1ccnc1COc1cc(CNc2cccc3c(N)nccc23)ccn1 [Example 4423, N5-((2-((1-methyl-1H-imidazol-2-yl)methoxy)pyridin-4-yl)methyl)isoquinoline-1,5-diamine] | 3 to 10 µM
27 | CCC1c2nnc(C(F)(F)F)n2CCN1c1cc(C)c(CNc2cccc3c(N)nccc23)cn1 (single isomer, unassigned) [Example 1320, (R*)-N5-((6-(8-ethyl-3-(trifluoromethyl)-5,6-dihydro-[1,2,4]triazolo[4,3-a]pyrazin-7(8H)-yl)-4-methylpyridin-3-yl)methyl)isoquinoline-1,5-diamine] | 10 to 40 µM
28 | Nc1nccc2cc(NCc3ccc(OCC4CCn5cc(C(F)(F)F)nc5C4)nc3)ccc12 (centres unmarked) [Example 1028, N6-((6-((2-(trifluoromethyl)-5,6,7,8-tetrahydroimidazo[1,2-a]pyridin-7-yl)methoxy)pyridin-3-yl)methyl)isoquinoline-1,6-diamine] | 1 to 3 µM
29 | Nc1nccc2cc(NCc3ccnc(OCC4CCn5cc(C(F)(F)F)nc5C4)c3)ccc12 (centres unmarked) [Example 4266, 6-N-[(2-{[2-(trifluoromethyl)-5H,6H,7H,8H-imidazo[1,2-a]pyridin-7-yl]methoxy}pyridin-4-yl)methyl]isoquinoline-1,6-diamine] | 1 to 3 µM
30 | CN1CCC(C)(COc2cc(CNc3cccc4c(N)nccc34)ccn2)CC1 [Example 4424, N5-((2-((1,4-dimethylpiperidin-4-yl)methoxy)pyridin-4-yl)methyl)isoquinoline-1,5-diamine] | 0.1 to 0.3 µM
31 | Cc1cc(N2CCn3c(nnc3C(F)(F)F)C2C)ncc1CNc1ccnc2[nH]c(Cl)cc12 (single isomer, unassigned) [Example 1315, (R*)-2-Chloro-N-((4-methyl-6-(8-methyl-3-(trifluoromethyl)-5,6-dihydro-[1,2,4]triazolo[4,3-a]pyrazin-7(8H)-yl)pyridin-3-yl)methyl)-1H-pyrrolo[2,3-b]pyridin-4-amine] | 10 to 40 µM
32 | COCC1c2nnc(C(F)(F)F)n2CCN1c1cc(C)c(CNc2cccc3c(N)nccc23)cn1 (single isomer, unassigned) [Example 1343, (S*)-N5-((6-(8-(methoxymethyl)-3-(trifluoromethyl)-5,6-dihydro-[1,2,4]triazolo[4,3-a]pyrazin-7(8H)-yl)-4-methylpyridin-3-yl)methyl)isoquinoline-1,5-diamine] | 3 to 10 µM

Source: patent US20240059691A1 (KALVISTA PHARMACEUTICALS LIMITED, priority 2020, published 2024)
